ChEMBL document CHEMBL4414660, “Effect of Modifier Structure on the Activation of Leukotriene A4 Hydrolase Aminopeptidase Activity” (J Med Chem, 2019)

Legend:
[1] = molecular target: T1, Leukotriene A-4 hydrolase (Homo sapiens, UniProt P09960); experiment: Inhibition of N-terminal (His)6 and Xpress-tagged LTA4H (unknown origin) expressed in Escherichia coli BL21(DE3) cells assessed as reduction in aminopeptidase activity by measuring p-nitroanilide release using L-Alanine-p-nitroanilide incubated for 10 mins by UV plate reader based assay
T1 sequence (P09960 whole entry): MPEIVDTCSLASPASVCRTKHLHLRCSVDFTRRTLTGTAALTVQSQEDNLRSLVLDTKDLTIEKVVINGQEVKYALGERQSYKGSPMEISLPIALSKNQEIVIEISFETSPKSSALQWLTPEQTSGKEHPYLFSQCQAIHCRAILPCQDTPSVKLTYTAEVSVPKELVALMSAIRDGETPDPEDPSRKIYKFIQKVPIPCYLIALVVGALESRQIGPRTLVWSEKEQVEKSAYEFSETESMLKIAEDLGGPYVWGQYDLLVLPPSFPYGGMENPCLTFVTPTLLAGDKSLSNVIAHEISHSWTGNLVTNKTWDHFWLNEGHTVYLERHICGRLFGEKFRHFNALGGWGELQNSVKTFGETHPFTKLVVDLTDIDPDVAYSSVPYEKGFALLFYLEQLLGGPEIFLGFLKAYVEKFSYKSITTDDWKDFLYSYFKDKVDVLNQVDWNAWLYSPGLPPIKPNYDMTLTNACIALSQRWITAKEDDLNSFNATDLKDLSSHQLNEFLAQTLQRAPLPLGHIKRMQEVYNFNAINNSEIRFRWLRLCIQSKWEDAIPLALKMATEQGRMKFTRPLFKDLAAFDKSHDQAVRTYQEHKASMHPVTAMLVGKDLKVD

[2] = molecular target: T1, Leukotriene A-4 hydrolase; experiment: Activation of N-terminal (His)6 and Xpress-tagged LTA4H (unknown origin) expressed in Escherichia coli BL21(DE3) cells assessed as increase in aminopeptidase activity by measuring p-nitroanilide release using L-Alanine-p-nitroanilide incubated for 10 mins by UV plate reader based assay
[3] = molecular target: T2, Leukotriene A-4 hydrolase (Homo sapiens) (UniProt P09960); experiment: (§1) Activation of N-terminal (His)6 and Xpress-tagged LTA4H (unknown origin) expressed in Escherichia coli BL21(DE3) cells assessed as increase in aminopeptidase activity by measuring reciprocal allosteric coupling constant for hyperbolic mixed predominantly catalytic activation using L-Alanine-p-nitroanilide incubated for 10 mins by p-nitroanilide release detection based UV plate reader based assay
T2 sequence (whole entry): T1 sequence (P09960 whole entry)

[4] = molecular target: T2, Leukotriene A-4 hydrolase (Homo sapiens); experiment: as §1, with “factor by which activator affects catalytic” for “reciprocal allosteric coupling”
[5] = molecular target: T2, Leukotriene A-4 hydrolase (Homo sapiens); experiment: as §1, with “dissociation” for “reciprocal allosteric coupling”, “constant (KX)” for “constant”
Neutrophil = experiment: Inhibition of LTB4 production in A23187-stimulated human neutrophils at 0.001 to 1000 microM incubated for 30 mins by ELISA; type: functional, cell-based
[6] = molecular target: T2, Leukotriene A-4 hydrolase (Homo sapiens); experiment: (§2) Inhibition of N-terminal (His)6 and Xpress-tagged LTA4H (unknown origin) expressed in Escherichia coli BL21(DE3) cells assessed as reduction in aminopeptidase activity by measuring p-nitroanilide release using L-arginine-p-nitroanilide incubated for 10 mins by UV plate reader based assay
[7] = molecular target: T1, Leukotriene A-4 hydrolase; experiment: as §2
[8] = molecular target: T2, Leukotriene A-4 hydrolase (Homo sapiens); experiment: Inhibition of N-terminal (His)6 and Xpress-tagged LTA4H (unknown origin) expressed in Escherichia coli BL21(DE3) cells assessed as reduction in aminopeptidase activity by measuring PGP hydrolysis incubated for 30 mins

Structure (SMILES)	IC50 [1]	AC50 [2]	K [3]	fold change (FC) [4]	K [5]	inhibition (Neutrophil)	inhibition [6]	IC50 [7]	inhibition [8]
COc1ccccc1Cc1ccc(-c2csc(N)n2)cc1	100 nM								
Cc1ccccc1Cc1ccc(-c2csc(N)n2)cc1		6620 nM							
Cc1ccc(Cc2ccc(-c3csc(N)n3)cc2)cc1		83 nM	1.64	18.7	0.1 µM				
Nc1nc(-c2ccc(Cc3ccccc3)cc2)cs1		240 nM	0.82	25.4	1.35 µM				
Nc1nc(-c2ccc(Cc3ccccc3C(F)(F)F)cc2)cs1	8350 nM								
COc1ccc(Cc2ccc(-c3csc(N)n3)cc2)cc1		210 nM	4.34	26.4	0.05 µM	Dose-dependent effect	Dose-dependent effect	13900 nM	Dose-dependent effect
